Data reported in patent US20260191838A1, “COMBINATIONS COMPRISING A MENIN-MLL INHIBITOR AND A BCL-2 INHIBITOR” (JANSSEN PHARMACEUTICA NV, priority 2022, published 2026).

Tested on: MOLM-13 (KMT2A-r) cell line
Experiment: In vitro proliferation (spheroid confluence, Incucyte), Compound 51 with venetoclax and optionally azacitidine, MOLM-13
Format: cell-based, human
Method: 3b) In Vitro Proliferation—Menin-MLL Inhibitor in Combination with Venetoclax and Optionally, Azacitidine
The effect of Compound 51, alone or in combination with venetoclax, or in combination with venetoclax+azacitidine, was determined in proliferation assays using the MOLM-13 (KMT2A-r) cell line.
MOLM-13 cells were seeded in 96-well, round-bottom, ultra-low attachment plates. The following dilution series were used: Compound 51 at an initial concentration of 1 μM, followed by a 5- or 6-point, 4-fold serial dilution series; azacitidine at an initial concentration of 25 μM, followed by a 6-point, 5-fold serial dilution series; and venetoclax at an initial concentration of 3 μM, followed by a 5- or 6-point, 5-fold serial dilution series. In the combination treatments that included venetoclax, venetoclax was added to the cells 4 days after treatment with Compound 51 and/or azacitidine was initiated. The triplet combination of Compound 51, in a checkerboard titration design with azacitidine+venetoclax, was tested at the same concentrations.
The optimal cell seeding number (500 cells/well) was chosen based on growth curves to ensure linear growth throughout the entire experiment. The DMSO content was normalized to 0.3% and cells were incubated for 8 days at 37° C., 5% CO2. Spheroid-like growth was monitored in real-time by non-invasive live-cell imaging using the 4× objective of the Incucyte ZOOM live cell imaging system (Essen BioScience), and images were acquired on Day 8. The percent confluence, as a measure of spheroid size, was determined using an integrated analysis tool that is part of the Incucyte ZOOM software “IncuCyte ZOOM 2016B” (Essen BioScience). The percent confluence from the DMSO well was used as baseline response. Each experiment contained 4 replicates of each condition and the experiment was performed 3 times. Potential combination effects were analyzed for synergy using an R-based Biochemically Intuitive Generalized Loewe (BIGL) model implemented with a highest single agent (HSA) null model (Van der Borght 2017).

## CC(=O)N1CCC(CN2CC[C@@H](Cc3cn(-c4ccc(F)cc4C(=O)N(C)C(C)C)c4cncc(C)c34)C2)CC1 [Compound 51]
doublet: Compound 51 0.0002 μM, Venetoclax 0.0003 μM
  Effect size (BIGL, HSA null model): 0.02
doublet: Compound 51 0.0002 μM, Venetoclax 0.0016 μM
  Effect size (BIGL, HSA null model): 0.01
doublet: Compound 51 0.0002 μM, Venetoclax 0.008 μM
  Effect size (BIGL, HSA null model): 0.05
doublet: Compound 51 0.0002 μM, Venetoclax 0.04 μM
  Effect size (BIGL, HSA null model): 0.02
doublet: Compound 51 0.0002 μM, Venetoclax 0.2 μM
  Effect size (BIGL, HSA null model): 0.08
doublet: Compound 51 0.0002 μM, Venetoclax 1 μM
  Effect size (BIGL, HSA null model): −0.05
doublet: Compound 51 0.001 μM, Venetoclax 0.0003 μM
  Effect size (BIGL, HSA null model): 0.01
doublet: Compound 51 0.001 μM, Venetoclax 0.0016 μM
  Effect size (BIGL, HSA null model): 0.03
doublet: Compound 51 0.001 μM, Venetoclax 0.008 μM
  Effect size (BIGL, HSA null model): 0.02
doublet: Compound 51 0.001 μM, Venetoclax 0.04 μM
  Effect size (BIGL, HSA null model): 0.00
doublet: Compound 51 0.001 μM, Venetoclax 0.2 μM
  Effect size (BIGL, HSA null model): 0.05
doublet: Compound 51 0.001 μM, Venetoclax 1 μM
  Effect size (BIGL, HSA null model): −0.05
doublet: Compound 51 0.004 μM, Venetoclax 0.0003 μM
  Effect size (BIGL, HSA null model): 0.05
doublet: Compound 51 0.004 μM, Venetoclax 0.0016 μM
  Effect size (BIGL, HSA null model): 0.04
doublet: Compound 51 0.004 μM, Venetoclax 0.008 μM
  Effect size (BIGL, HSA null model): 0.04
doublet: Compound 51 0.004 μM, Venetoclax 0.04 μM
  Effect size (BIGL, HSA null model): −0.03
doublet: Compound 51 0.004 μM, Venetoclax 0.2 μM
  Effect size (BIGL, HSA null model): 0.40
doublet: Compound 51 0.004 μM, Venetoclax 1 μM
  Effect size (BIGL, HSA null model): −0.09
doublet: Compound 51 0.0156 μM, Venetoclax 0.0003 μM
  Effect size (BIGL, HSA null model): −0.04
doublet: Compound 51 0.0156 μM, Venetoclax 0.008 μM
  Effect size (BIGL, HSA null model): −0.27
doublet: Compound 51 0.0156 μM, Venetoclax 0.04 μM
  Effect size (BIGL, HSA null model): −0.42
doublet: Compound 51 0.0156 μM, Venetoclax 0.2 μM
  Effect size (BIGL, HSA null model): −0.24
doublet: Compound 51 0.0156 μM, Venetoclax 1 μM
  Effect size (BIGL, HSA null model): −0.18
doublet: Compound 51 0.0625 μM, Venetoclax 0.0003 μM
  Effect size (BIGL, HSA null model): −0.01
doublet: Compound 51 0.0625 μM, Venetoclax 0.0016 μM
  Effect size (BIGL, HSA null model): −0.04
doublet: Compound 51 0.0625 μM, Venetoclax 0.008 μM
  Effect size (BIGL, HSA null model): −0.12
doublet: Compound 51 0.0625 μM, Venetoclax 0.04 μM
  Effect size (BIGL, HSA null model): −0.15
doublet: Compound 51 0.0625 μM, Venetoclax 0.2 μM
  Effect size (BIGL, HSA null model): −0.15
doublet: Compound 51 0.0625 μM, Venetoclax 1 μM
  Effect size (BIGL, HSA null model): −0.16
doublet: Compound 51 0.25 μM, Venetoclax 0.0003 μM
  Effect size (BIGL, HSA null model): 0.00
doublet: Compound 51 0.25 μM, Venetoclax 0.0016 μM
  Effect size (BIGL, HSA null model): 0.11
doublet: Compound 51 0.25 μM, Venetoclax 0.008 μM
  Effect size (BIGL, HSA null model): −0.05
doublet: Compound 51 0.25 μM, Venetoclax 0.04 μM
  Effect size (BIGL, HSA null model): −0.07
doublet: Compound 51 0.25 μM, Venetoclax 0.2 μM
  Effect size (BIGL, HSA null model): −0.13
doublet: Compound 51 0.25 μM, Venetoclax 1 μM
  Effect size (BIGL, HSA null model): −0.07
doublet: Compound 51 1 μM, Venetoclax 0.0003 μM
  Effect size (BIGL, HSA null model): −0.02
doublet: Compound 51 1 μM, Venetoclax 0.0016 μM
  Effect size (BIGL, HSA null model): −0.03
doublet: Compound 51 1 μM, Venetoclax 0.008 μM
  Effect size (BIGL, HSA null model): −0.07
doublet: Compound 51 1 μM, Venetoclax 0.04 μM
  Effect size (BIGL, HSA null model): −0.08
doublet: Compound 51 1 μM, Venetoclax 0.2 μM
  Effect size (BIGL, HSA null model): −0.07
doublet: Compound 51 1 μM, Venetoclax 1 μM
  Effect size (BIGL, HSA null model): −0.06
triplet: Compound 51 0.001 μM, Venetoclax 0.0001 μM, Azacitidine 0.008 μM
  Effect size (BIGL, HSA null model): 0.03
triplet: Compound 51 0.001 μM, Venetoclax 0.0002 μM, Azacitidine 0.0016 μM
  Effect size (BIGL, HSA null model): 0.03
triplet: Compound 51 0.001 μM, Venetoclax 0.005 μM, Azacitidine 0.04 μM
  Effect size (BIGL, HSA null model): 0.05
triplet: Compound 51 0.001 μM, Venetoclax 0.024 μM, Azacitidine 0.2 μM
  Effect size (BIGL, HSA null model): −0.02
triplet: Compound 51 0.001 μM, Venetoclax 0.12 μM, Azacitidine 1 μM
  Effect size (BIGL, HSA null model): 0.01
triplet: Compound 51 0.001 μM, Venetoclax 0.6 μM, Azacitidine 5 μM
  Effect size (BIGL, HSA null model): −0.03
triplet: Compound 51 0.001 μM, Venetoclax 3 μM, Azacitidine 25 μM
  Effect size (BIGL, HSA null model): 0.01
triplet: Compound 51 0.004 μM, Venetoclax 0.0001 μM, Azacitidine 0.008 μM
  Effect size (BIGL, HSA null model): 0.03
triplet: Compound 51 0.004 μM, Venetoclax 0.0002 μM, Azacitidine 0.0016 μM
  Effect size (BIGL, HSA null model): 0.04
triplet: Compound 51 0.004 μM, Venetoclax 0.005 μM, Azacitidine 0.04 μM
  Effect size (BIGL, HSA null model): 0.04
triplet: Compound 51 0.004 μM, Venetoclax 0.024 μM, Azacitidine 0.2 μM
  Effect size (BIGL, HSA null model): −0.05
triplet: Compound 51 0.004 μM, Venetoclax 0.12 μM, Azacitidine 1 μM
  Effect size (BIGL, HSA null model): −0.08
triplet: Compound 51 0.004 μM, Venetoclax 0.6 μM, Azacitidine 5 μM
  Effect size (BIGL, HSA null model): −0.03
triplet: Compound 51 0.004 μM, Venetoclax 3 μM, Azacitidine 25 μM
  Effect size (BIGL, HSA null model): 0.01
triplet: Compound 51 0.0625 μM, Venetoclax 0.0002 μM, Azacitidine 0.0016 μM
  Effect size (BIGL, HSA null model): 0.02
triplet: Compound 51 0.25 μM, Venetoclax 0.0001 μM, Azacitidine 0.008 μM
  Effect size (BIGL, HSA null model): −0.00
triplet: Compound 51 0.25 μM, Venetoclax 0.0002 μM, Azacitidine 0.0016 μM
  Effect size (BIGL, HSA null model): 0.00
triplet: Compound 51 0.25 μM, Venetoclax 0.005 μM, Azacitidine 0.04 μM
  Effect size (BIGL, HSA null model): 0.11
triplet: Compound 51 0.25 μM, Venetoclax 0.024 μM, Azacitidine 0.2 μM
  Effect size (BIGL, HSA null model): −0.07
triplet: Compound 51 0.25 μM, Venetoclax 0.12 μM, Azacitidine 1 μM
  Effect size (BIGL, HSA null model): −0.14
triplet: Compound 51 0.25 μM, Venetoclax 0.6 μM, Azacitidine 5 μM
  Effect size (BIGL, HSA null model): −0.06
triplet: Compound 51 0.25 μM, Venetoclax 3 μM, Azacitidine 25 μM
  Effect size (BIGL, HSA null model): 0.01
triplet: Compound 51 1 μM, Venetoclax 0.0001 μM, Azacitidine 0.008 μM
  Effect size (BIGL, HSA null model): −0.02
triplet: Compound 51 1 μM, Venetoclax 0.0002 μM, Azacitidine 0.0016 μM
  Effect size (BIGL, HSA null model): −0.01
triplet: Compound 51 1 μM, Venetoclax 0.005 μM, Azacitidine 0.04 μM
  Effect size (BIGL, HSA null model): −0.04
triplet: Compound 51 1 μM, Venetoclax 0.024 μM, Azacitidine 0.2 μM
  Effect size (BIGL, HSA null model): −0.08
triplet: Compound 51 1 μM, Venetoclax 0.12 μM, Azacitidine 1 μM
  Effect size (BIGL, HSA null model): −0.14
triplet: Compound 51 1 μM, Venetoclax 0.6 μM, Azacitidine 5 μM
  Effect size (BIGL, HSA null model): −0.05
triplet: Compound 51 1 μM, Venetoclax 3 μM, Azacitidine 25 μM
  Effect size (BIGL, HSA null model): 0.02
